Legend:
[1] = tested on: A549 (human non-small cell lung carcinoma); assay: In vitro evaluation, A549; assay type: cell-based; details: A549, medium B, 72 hours, solvent DMSO
Description: (§1) In vitro evaluations of the compound 5'-deoxy-5'-(monofluoroethylthio) adenosine (MFETA) were performed using the materials and conditions described in Tables 9 and 10.
(§2) (a) Basal medium + RPMI 1640 + 20 mM HEPES;
(§3) B--5% NuSerum IV + 5% FCS,
(§4) *Incubation or exposure time is determined by the doubling time of the
(§5) cell line such that each is exposed to the compound for 3-4 cell

[2] = tested on: LOX (human melanoma); assay: In vitro evaluation, LOX; assay type: cell-based; details: medium B, 72 hours
Description: as §1
(§6) ^(a) Basal medium = RPMI 1640 + 20 mM HEPES + 2 mM Lglutamine
(§7) B = 5% FCS + 5% NuSerum IV

[3] = biological target: T1, Mouse Liver MTA Phosphorylase (Mus musculus, UniProt Q9CQ65); assay: Mouse liver MTA phosphorylase substrate/inhibitor assay; assay type: biochemical
T1 sequence (Q9CQ65 1-283): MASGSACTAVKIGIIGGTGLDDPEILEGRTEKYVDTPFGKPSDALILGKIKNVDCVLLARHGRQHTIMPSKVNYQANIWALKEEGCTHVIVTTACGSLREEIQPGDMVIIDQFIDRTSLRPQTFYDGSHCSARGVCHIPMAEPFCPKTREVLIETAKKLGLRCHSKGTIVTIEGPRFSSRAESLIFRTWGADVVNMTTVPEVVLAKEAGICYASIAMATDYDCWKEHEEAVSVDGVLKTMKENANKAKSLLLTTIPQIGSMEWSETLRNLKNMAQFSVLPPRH
Description: ^a MTA phosphorylase activity was assayed as described in Sufrin et

[4] = tested on: A121 (human ovarian carcinoma); assay: In vitro evaluation, A121; assay type: cell-based; details: A121, medium B, 72 hours, solvent DMSO
Description: as §1, §2, §3, §4, §5

[5] = tested on: L5178Y leukemic cells; assay: Antitumor effects in L5178Y leukemic mice; assay type: in vivo, DBA/2N mice
Description: The antitumor effects of MFETA were evaluated in DBA/2N mice (Charles River) who received i.p. transplants of 10^6 L1210 leukemic cells or 10^6 L5178Y leukemic cells on day 0 according to protocols described previously by Bernacki et al., Cancer Res. 47, 799, 1987. The increase in life span (% ILS) of treated animals relative to untreated, tumor-bearing animals was used as the measure of their therapeutic effectiveness at specified dose regimens.
^a MFETA was administered i.p. on days 1, 2, 3, 4, 5 following i.p.
implantation of 10^6 tumor cells on day 0.
^b % ILS is the percentage of increase in life span.

[6] = tested on: T. b. brucei LAB 110 EATRO; assay: In vivo antitrypanosomal activity, LAB EATRO mouse infection model; details: 7 days, miniosmotic pump
Description: ^a Animals were treated with surgically implanted miniosmotic pumps
loaded as per manufacturers instructions with MTA, HETA or MFETA suspende

[7] = tested on: Ebey (human melanoma); assay: In vitro evaluation, Ebey; assay type: cell-based; details: medium B, 72 hours
Description: as §1, §6, §7

[8] = tested on: MCF7 (human breast carcinoma); assay: In vitro evaluation, MCF7; assay type: cell-based; details: MCF7, medium B, 72 hours, solvent DMSO
Description: as §1, §2, §3, §4, §5

[9] = tested on: PANuT (human melanoma); assay: In vitro evaluation, PANuT; assay type: cell-based; details: medium B, 72 hours
Description: as §1, §6, §7

[10] = tested on: L5178Y cells (MTA phosphorylase-containing); assay: Growth inhibition of L5178Y cells; assay type: cell-based, mouse; details: Mus musculus, 48 h
Description: L1210, L5178Y and MOLT-4 cell lines were grown in RPMI 1640 and 10% Nu Serum (Collaborative Research Inc., Lexington, Mass.) and CCRF-CEM cells were grown in 10% Horse Serum (Gibco Laboratories, Grand Island, N.Y.) and maintained as previously described for suspension cultures by Pera et al. in Cancer Res. 46, 1148, 1986. Cell cultures (0.3×10^5 cells/ml) were treated with each compound at 0.1 to 1000 μM to determine the concentration that inhibited growth by 50% (IC50) at 48 hr for the L1210 and L5178Y cells and at 96 hr for the CCRF-CEM and MOLT-4 cells. The incubation times allowed approximately 4 cell doublings in each cell line. All compounds were freshly prepared prior to treatment by dissolving in DMSO and diluting in serum-free media. Cells were counted by electron particle counting (Model XF' Coulter Counter; Coulter Electronics, Hialeah, Fla.).
For each compound, the concentrations required to inhibit cell growth by 50% (IC50 values) are shown in Table 7 for two murine leukemic cell lines, L1210 and L5178Y [MTA phosphorylase-deficient and MTA phosphorylase-containing, respectively] and two human leukemic cell lines, CCRF-CEM and MOLT-4 [MTA phosphorylase-deficient and MTA phosphorylase-containing, respectively]. ETA, MFETA, HETA and PTA had lower IC50 values in the L5178Y cells than in the L1210 cells. […] This differential is consistent with the possibility that, in L5178Y cells, MFETA is cleaved by MTA phosphorylase to the growth inhibitory metabolite, 5-monofluoroethylthioribose-1-phosphate (MFETR-1-P).

[11] = tested on: PSN-1 (human pancreatic carcinoma); assay: In vitro evaluation, PSN-1; assay type: cell-based; details: PSN1, PSN-1, medium C, 72 hours, solvent DMSO
Description: as §1, §2, §3, §4, §5

[12] = tested on: STO-1 (human melanoma); assay: In vitro evaluation, STO-1; assay type: cell-based; details: STO-1, medium B, 72 hours
Description: as §1, §6, §7

## Nc1ncnc2c1ncn2[C@@H]1O[C@H](CSCCF)[C@@H](O)[C@H]1O [MFETA, 5'-deoxy-5'-(monofluoroethylthio)adenosine]
[1]
  IC50: 346 µM
[2]
  IC50: 268 ± 13 µM
[3]; mouse liver MTA phosphorylase, read-out: K1
  Ki: 3.1 µM
[3]; substrate activity relative to MTA
  Substrate (% Control): 64 % Control
[4]
  IC50: 269 µM
[5]; 10 mg/kg i.p. days 1-5
  % ILS (percentage of increase in life span): 12%
  Mean Death Weight: 19.7 g
  Survival Mean ± SD: 9.0 ± 3 days
  Survival Median: 9 days
  Survival Range: 8 to 10 days
[5]; 50 mg/kg i.p. days 1-5
  % ILS (percentage of increase in life span): 37%
  Mean Death Weight: 21.6 g
  Survival Mean ± SD: 10.0 ± 6 days
  Survival Median: 11 days
  Survival Range: 8 to 11 days
[5]; 100 mg/kg i.p. days 1-5
  % ILS (percentage of increase in life span): 37%
  Mean Death Weight: 23.1 g
  Survival Mean ± SD: 10.5 ± 4 days
  Survival Median: 11 days
  Survival Range: 8 to 12 days
[5]; 200 mg/kg i.p. days 1-5
  % ILS (percentage of increase in life span): 62%
  Mean Death Weight: 20.4 g
  Survival Mean ± SD: 12.4 ± 9 days
  Survival Median: 13 days
  Survival Range: 9 to 14 days
[5]; 300 mg/kg i.p. days 1-5
  % ILS (percentage of increase in life span): -75%
  Mean Death Weight: 18.4 g
  Survival Mean ± SD: 2.6 ± 4 days
  Survival Median: 2 days
  Survival Range: 2 to 4 days
[6]; 10 mg/kg/day
  % Cured: 0%
  MSD (mean survival in days of animals dying of infection): 5.0 days
  Number Cured Total: 0/5
[6]; 25 mg/kg/day
  % Cured: 40%
  MSD (mean survival in days of animals dying of infection): 11.6 days
  Number Cured Total: 2/5
[6]; 50 mg/kg/day
  % Cured: 0%
  MSD (mean survival in days of animals dying of infection): 10.6 days
  Number Cured Total: 0/5
[6]; 100 mg/kg/day
  % Cured: 40%
  MSD (mean survival in days of animals dying of infection): 12.0 days
  Number Cured Total: 2/5
[7]
  IC50: 442 ± 13 µM
[8]
  IC50: 337 µM
[9]
  IC50: 160 ± 8.1 µM
[10]
  IC50: 60 ± 35 µM
[11]
  IC50: 175 µM
[12]
  IC50: 296 ± 9.9 µM
